The values that follow are results of earlier work, collected in patent publication US20020072508A1, “Anti-depressant, stress suppressor and mood improver” (LIPOGEN LTD., priority 2000, published 2002).

This data set concerns withdrawal symptoms associated with addiction (cigarettes, alcohol, narcotics).

On to phosphatidic acid, for which the “withdrawal symptoms associated with addiction” value is “alleviate withdrawal symptoms”.
